This note sets out measurements from article PMC8453848, “Effect of GLPG1205, a GPR84 Modulator, on CYP2C9, CYP2C19, and CYP1A2 Enzymes: In Vitro and Phase 1 Studies” (Clinical Pharmacology in Drug Development, 2021).

Common to all, as to assay: in vitro
Series [1] deals with CYP1A2. The note with it: human. On the procedure:
(§1) GLPG1205 was incubated with monolayer cultures of fresh human hepatocytes from 3 individual donors for 24 hours (messenger ribonucleic acid [mRNA] analysis) or 48 hours (enzyme activity) at 6 different concentrations: 0.5, 1, 5, 10, 50, and 100 μM (0.19, 0.38, 1.89, 3.78, 18.9, and 37.8 μg/mL, respectively). All incubations contained 0.4% dimethylsulfoxide (DMSO). Incubation with 50 μM omeprazole containing 0.1% DMSO was used as a positive control. Incubations with 0.1% and 0.4% DMSO alone were used as negative controls.
Following a 48‐hour incubation period, an enzymatic assay assessed phenacetin O‐deethylase (a CYP1A2 substrate) activity by measuring the CYP1A2‐dependent metabolite acetaminophen in supernatants. Acetaminophen was quantified using liquid chromatography coupled with tandem mass spectrometry (LC‐MS/MS).
(§2) A concentration‐dependent increase in mRNA of <100% was considered a negative finding when the increase in mRNA was less than 20% of the response of the positive control.
(§3) Incubation for CYP1A2 Induction Experiment The incubations for enzyme activity measurements were performed with cell monolayers in 96-well plates and the incubations for mRNA measurements were performed with cell monolayers in 24-well plates.^3
GLPG1205 was incubated with monolayer culture of human fresh hepatocytes from 3 individual donors for 24 or 48 hours, for messenger ribonucleic acid (mRNA) analysis and enzyme activity, respectively, at 6 different concentrations (n = 3): 0.1, 0.5, 1, 5, 10 and 50 µM (0.038, 0.19, 0.38, 1.89, 3.78 and 18.9 µg/mL, respectively). […] Incubation with 50 µM omeprazole containing 0.1% DMSO was used as a positive control. Incubations with 0.1% and 0.4% DMSO alone were used as negative controls. The CMI was William’s E medium with hepatocytes induction additives. Cells were cultured at 37°C in a humidified carbon dioxide/air (5%/95%) atmosphere. Culture media were renewed daily in all wells.
Enzymatic Assay At the end of the 48-hour incubation period, CYP1A2 enzyme activity was measured in intact cells by incubating with phenacetin, a probe substrate. Cells were first washed with minimum essential medium (MEM) devoid of phenol red to remove remaining test compounds or reference inducers and were then incubated for 2 hours at 37°C with 200 µM phenacetin in MEM devoid of phenol red and containing 0.1% DMSO. Assessment of phenacetin O-deethylase activity in supernatants was carried out by measuring the CYP1A2-dependent metabolite acetaminophen. Cell protein content was also determined; protein content was measured according to the bicinchoninic acid method^4 and calculated using a bovine serum albumin standard curve.
A 2-fold dilution of the specimens in a solution of 1 µM D4-acetaminophen in water with 0.1% formic acid was performed and 20 µL were injected into the LC-MS/MS system. The mobile phase consisted of ammonium acetate 5 mM in water (A) and formic acid 0.3% in acetonitrile/methanol, 50/50, v/v. The following gradient was applied with a 1.5 mL/min flow rate and an oven temperature of 40°C: 98% A from 0 minutes; 70% A from 2.5 minutes; 1% A from 2.6 minutes; 1% A from 3.2 minutes; 98% A from 3.25 minutes; 98% A from 4.5 minutes. In this condition, the retention time of acetaminophen was approximately 2.33 minutes. Controls were performed by injecting calibration standards at the beginning and end of each run. […]

Series [2] has as its system CYP1A2 mRNA. To be noted: human, hepatocytes, 24 h. On the procedure: as §1
(§4) Following a 24‐hour incubation, CYP1A2 mRNA was quantified using real‐time quantitative reverse transcription polymerase chain reaction.
as §2, §3
(§5) GLPG1205 was incubated with monolayer culture of human fresh hepatocytes from 3 individual donors for 24 or 48 hours, for messenger ribonucleic acid (mRNA) analysis and enzyme activity, respectively, at 6 different concentrations (n = 3): 0.1, 0.5, 1, 5, 10 and 50 µM (0.038, 0.19, 0.38, 1.89, 3.78 and 18.9 µg/mL, respectively). […]
(§6) mRNA Analysis At the end of the 24-hour incubation period, the incubation medium was removed and the cell monolayers were washed twice with 500 µL phosphate buffered saline. […] Total RNA and RNA quality were assessed by measuring 260/280 nm and 260/230 nm absorbance ratios. RNA concentrations were used to normalize the quantity of RNA used for the reverse transcriptase assay. […]
(§7) Quantitative real-time reverse transcription polymerase chain reaction (qRT-PCR) was performed using SYBRGreen® validated primers for CYP1A2.^3 The housekeeping gene glyceraldehyde 3-phosphate dehydrogenase (GAPDH) was analyzed in parallel as the control gene. […]
(§8) The fold induction (FI) was determined as: […]

The subject of series [3] is CYP1A2. The note with it: human. On the procedure: as §1, §4, §2, §3, §5, §6, §7, §8
The source holds these as a separate data set.

Where [4] appears, read: Phenacetin O-deethylase activity, fold induction.

Regarding `O=c1nc(OC[C@@H]2COCCO2)cc2n1CCc1cc(C#CC3CC3)ccc1-2` [GLPG1205, 9‐cyclopropylethynyl‐2‐[(S)‐1‐(1,4)dioxan‐2‐ylmethoxy]‐6,7‐dihydropyrimido[6,1‐a]isoquinolin‐4‐one], the “Phenacetin O-deethylase activity, fold induction” value in series [1] (48 h, 50 µM) amounted to 0.367 ± 0.021 fold. For the same compound, in series [1] (setting [4]), the fold induction (as a rule, the signal under treatment as a multiple of the control signal) at 48 h, 0.1 µM is 1.64 ± 0.256 and the fold induction at 48 h, 50 µM was found to be 0.335 ± 0.033. Moreover, in series [1] (hepatocytes, 48 h), the “increases in CYP1A2 activity compared with the negative control (0.4% DMSO)” value was no more than 2 fold and the “increases in CYP1A2 activity, % of the positive control (omeprazole)” value is given as “lower than 40%”. The “increase in CYP1A2 mRNA expression compared with the vehicle control” value in series [2] is “greater than 100%”. The fold induction at 24 h, 1 µM in series [3] (CYP1A2 mRNA, fold induction, mean (SD)) is 6.12 ± 0.65. Moreover, the fold induction at 24 h, 1 µM in series [3] (maximum fold induction of CYP1A2 mRNA) was found to be 6.
